From patent US20180188195A1, “SYSTEMS AND METHODS FOR MULTIPLEXED HEMOSTASIS TEST PANELS” (T2 Biosystems, Inc., priority 2015, published 2018)

Assays:
platelet aggregation = test: Platelet aggregation by whole blood aggregometry (WBA) or light transmission aggregometry (LTA); assay type: cell-based, human; conditions: titration of CCD
citrated plasma = test: T2MR PT clotting time in samples from donors on Coumadin therapy; assay type: in vivo, human
Protocol: All samples were sourced from the coagulation laboratory at a local hospital. Lab protocol was to collect discarded citrated blood samples (venous draw, 1 mL minimum) from patients on Coumadin therapy with both normal and abnormal PT values. Citrated blood samples were stored at RT and within 4-5 hours of the draw time samples were spun down at 1500×g for 15 min to prepare plasma. Plasma samples were stored frozen at −70° C.
For citrated plasma, a tissue factor reagent was prepared by reconstituting the lyophilized Dade® Innovin® (tissue factor) reagent. Citrated plasma (13 μL) was mixed with 27 μL of tissue factor reagent. All reagents and disposables were adequately pre-heated. T2 values were collected with a 1 second dwell time and used to collect the T2 values as a function of time. The T2 vs. time data were collected for 120 successive measurements and fit with a five-parameter logistic fit to calculate the EC50, from which the clotting time was derived. A method comparison against the Stago ST4 system and a precision study was completed with 22 samples from normal donors not on anti-coagulant medications and 50 samples from donors on Coumadin. […] INR (international normalized ratio, a normalized PT value) values were calculated from a pool of normal healthy donors. […] This corresponds to a clotting time value that is prolonged compared to standard therapeutic ranges.

plasma [1] = test: STAGO aPTT; assay type: biochemical, human; conditions: rivaroxaban spiked samples, six donors
Protocol: Citrated whole blood samples from six donors were provided and spiked with rivaroxaban to generate a range of clotting times. An activator of the intrinsic coagulation pathway, (e.g. ellagic acid), was added. T2MR clotting time range was between 73-202 seconds, and the STAGO aPTT range was between 29-86 seconds. Five replicate T2MR measurements were taken for each clotting time. The specification desired was between 0.7-5% CV with 100-200 seconds of clotting time and a detection range of 60-450 seconds.

plasma [2] = test: STAGO plasma prothrombin time (PT); assay type: biochemical, human; conditions: rivaroxaban spiked samples, three donors
Protocol: Samples from three donors were provided. Rivaroxaban spiked citrated whole blood samples were used to generate a range of clotting time measurements. An extrinsic pathway activator, such as tissue factor, was added. The T2MR clotting time (CT) range used was 32-259 seconds, and the STAGO plasma prothrombin time (PT) range was 11-47 seconds. Five replicate T2MR measurements were taken for each clotting time.

citrated whole blood [3] = test: T2In T2MR clotting time, intrinsic pathway activator (ellagic acid); assay type: cell-based, human
Excerpt: In another embodiment a coagulopathy panel is used with an intrinsic activator such as ellagic acid. The common range of clotting time is often between 100 and 120 seconds for normal blood. However, it can be 22-30 seconds, 30-44 seconds, 44-60 seconds, 60-80 seconds, 80-100 seconds, up to 2 times to 4 times the range of normal T2MR clotting times for the extrinsic activator. The abnormal clotting time ranges are above or below the normal range. The total range easily measured is 8-300 seconds though a measurement up to or beyond 1000 seconds could be performed with modified acquisition. If aprotinin is added in addition to intrinsic activator, clotting times can often be from 110.9-151.0 seconds in normal blood.
The general intrinsic activator protocol is as follows (T2In panel): an intrinsic activator solution was prepared by mixing tissue factor reagent with CaCl2. To 36.7 μL of citrated whole blood (warmed to approximately 37° C. for 3 minutes and mixed) was added 5 μL of the intrinsic activator solution (also been warmed to approximately 37° C. for one minute). The resulting solution was mixed and subjected to T2 measurements for 50 minutes. For a given sample, a clotting time measurement was typically obtained within 5 minutes. Some examples of activators are tissue factor with phospholipids and ellagic acid with phospholipid. The reagents were placed in a tube that was subsequently placed in the magnetic field. Citrated whole blood was added and mixed. The blood was diluted 50%. The T2MR of the sample was measured for 30 minutes.
The T2Ex or the T2In protocols were also used with the addition of aprotinin (T2Ex-A and T2In-A) respectively. For the intrinsic pathway measurement (T2In), intrinsic activator solution was prepared by mixing ellagic acid stock and CaCl2. For the intrinsic pathway measurement that includes aprotinin (T2In-A), add 41.7 μL of a 1 mg/mL stock of aprotinin to 1 mL intrinsic activator solution. 36.7 μL citrated whole blood that had been warmed to approximately 37° C. for three minutes was added and mixed. […] The sample was mixed and read in the T2reader. […]

citrated whole blood [4] = test: T2Ex T2MR clotting time, extrinsic pathway activator (tissue factor); assay type: cell-based, human
Excerpt: In one embodiment a panel is used with an extrinsic activator such as tissue factor. The clotting time T2MR measurement for normal blood can be 30-40 seconds. It can also be 8-12 seconds, 10-20 seconds, 10-40 seconds, 30-40 seconds, 30-50 seconds, 40-60 seconds, 50-60 seconds or 20-60 seconds. The international normalized ratio for normal blood can then be 0.8-1.2, or 0.87-1.13. The abnormal range of T2MR measurement of clotting time is above or below the normal range. The total range easily measured is 8-300 seconds though a measurement up to or beyond 1000 seconds could be performed with modified acquisition. If aprotinin is added in addition to tissue factor, in normal blood the clotting time is often between 27.9 and 41.6 seconds.
The general extrinsic activator protocol was as follows (T2Ex panel): an extrinsic activator solution was prepared by mixing tissue factor reagent with CaCl2. […]
The T2Ex or the T2In protocols were also used with the addition of aprotinin (T2Ex-A and T2In-A) respectively. […] The sample was mixed and read in the T2reader. […]
Rivaroxaban was spiked into citrated blood from normal donors at increasing levels. Aliquots of spiked blood were activated with tissue factor activator solution and clot times determined by T2MR. […]

citrated whole blood [5] = test: T2In platelet activity and fibrinolysis measurement with tPA or aprotinin; assay type: cell-based, human; conditions: ellagic acid with CaCl2; tPA 0, 2 or 4 nM or aprotinin control; 65 min
Protocol: The T2Ex or the T2In protocols were also used with the addition of aprotinin (T2Ex-A and T2In-A) respectively. For the intrinsic pathway measurement (T2In), intrinsic activator solution was prepared by mixing ellagic acid stock and CaCl2. For the intrinsic pathway measurement that includes aprotinin (T2In-A), add 41.7 μL of a 1 mg/mL stock of aprotinin to 1 mL intrinsic activator solution. 36.7 μL citrated whole blood that had been warmed to approximately 37° C. for three minutes was added and mixed. 5 μL of intrinsic activator solution with aprotinin that had been warmed to approximately 37° C. for one minute was added. The sample was mixed and read in the T2reader. The clotting time measurement was obtained after 5 minutes and then the platelet activity and fibrinolysis measurements were obtained over the following 60 minutes. In a separate assay the effects of the amounts of activator were tested.
Platelet activity and fibrinolysis measurements for the 3 donor samples in the T2In assay are shown in FIG. 15a-15b. tPA levels of 0 nM, 2 nM or 4 nM were added to citrated whole blood. Blood samples (36.7 μL) were activated by addition of 5 μL ellagic acid solution with CaCl2. T2MR data was collected for 65 min. The addition of tPA cleaves the fibrin mesh of the clot and results in clot dissolution over time. This is detected by T2MR by the change in T2 value of the serum peak (third phase). […]

[6] = system: reconstituted blood samples; test: T2MR % deltaT2 fibrinogen measurement, reconstituted blood activated with ellagic acid; assay type: cell-based, human
Excerpt: The T2MR based hemostasis assays described herein can be used to discriminate normal from abnormal patient samples for fibrinogen measurements using either an extrinsic or intrinsic pathway activation. […] Citrated whole blood from normal donors was centrifuged and […] removed. Packed red blood cells were washed with fibrinogen depleted plasma. Fibrinogen depleted plasma was spiked with known amounts of fibrinogen; these spiked plasmas were used to reconstitute washed red blood cells to produce blood samples with varying fibrinogen levels. Blood samples were activated with ellagic acid activator solution and clot time and % deltaT2 were measured. Fibrinogen levels in each sample were determined by the Clauss method. […] Low fibrinogen (120 mg/dL) gave an average % deltaT2 of 4, normal level fibrinogen (343 mg/dL) gave an average % deltaT2 of 8.3 and high fibrinogen (583 mg/dL) gave an average % deltaT2 of 10.7.

Q: For C=C1[C@@H](C)[C@H]2[C@H](Cc3ccccc3)NC(=O)[C@]23[C@H](OC(C)=O)/C=C/[C@@](C)(O)C(=O)[C@@H](C)C/C=C/[C@H]3[C@@H]1O [CCD, cytochalasin D], which “effect on platelet aggregation” value (platelet aggregation) is on record?
A: The value was “no reproducible effect”.

Q: With CC(=O)CC(c1ccccc1)c1c(O)c2ccccc2oc1=O (centres unmarked) [Coumadin, warfarin] as the compound, how does the “clotting times versus normal donors not on therapy” value (citrated plasma; citrated plasma, citrated blood and fresh whole blood) read?
A: The value was “prolonged clotting times”.

Q: What about the INR (citrated plasma; patient on Coumadin, hypocoagulable state) of the same compound?
A: Its INR is 5.3.

Q: What about the T2MR clotting time (citrated plasma; patient on Coumadin, hypocoagulable state, citrated plasma, tissue factor reagent) of the same compound?
A: Its T2MR clotting time is 51.3 s.

Q: What about the INR (citrated plasma; patient undergoing Coumadin therapy but hypercoagulable) of the same compound?
A: Its INR is 0.8.

Q: What about the T2MR clotting time (citrated plasma; patient undergoing Coumadin therapy but hypercoagulable, citrated plasma) of the same compound?
A: Its T2MR clotting time is 8.4 s.

Q: What does the source list for O=C(NC[C@H]1CN(c2ccc(N3CCOCC3=O)cc2)C(=O)O1)c1ccc(Cl)s1 [rivaroxaban]?
A: STAGO aPTT range (plasma [1]): 29 to 86 s; STAGO plasma prothrombin time (PT) range (plasma [2]): 11 to 47 s; T2MR clotting time range (citrated whole blood [3]; rivaroxaban spiked citrated whole blood, six donors): 73 to 202 s; extension of clot times (citrated whole blood [4]; 800 ng/mL spiked into citrated blood from normal donors, tissue factor activator solution): approximately 80%; T2MR clotting time (CT) range (citrated whole blood [4]; rivaroxaban spiked citrated whole blood, three donors, range over spiked samples (Example 12)): 32 to 259 s

Q: How did the “change in T2 value of the serum peak (third phase)” value (citrated whole blood [5]) turn out when aprotinin was run?
A: Its value is “no detected change”.

Q: And the “clotting time curves (% deltaT2)” value (citrated whole blood [3]; T2In, 3 donors, different tPA concentrations, with or without aprotinin)?
A: The value was “appear to overlay”.

Q: What about the clotting times (citrated whole blood [3]; aprotinin added in addition to intrinsic activator, normal blood) of the same compound?
A: Its clotting times is 110.9 to 151.0 s.

Q: What does the source list for fibrinogen?
A: average % deltaT2 ([6]; high fibrinogen 583 mg/dL): 10.7; average % deltaT2 ([6]; low fibrinogen 120 mg/dL): 4; average % deltaT2 ([6]; normal level fibrinogen 343 mg/dL): 8.3
